Laboratory results from ChEMBL document CHEMBL6182948 (J Med Chem, 2025).

Assays:
Cytochrome P450 1A1 = biological target: T1, Cytochrome P450 1A1 (Homo sapiens, UniProt P04798); test: Inhibition of human recombinant CYP1A1 using 7-ethoxyresorufin as substrate incubated under dark condition for 15 mins in presence of NADPH by EROD fluorescence assay; assay type: ADME
T1 sequence (P04798 whole entry): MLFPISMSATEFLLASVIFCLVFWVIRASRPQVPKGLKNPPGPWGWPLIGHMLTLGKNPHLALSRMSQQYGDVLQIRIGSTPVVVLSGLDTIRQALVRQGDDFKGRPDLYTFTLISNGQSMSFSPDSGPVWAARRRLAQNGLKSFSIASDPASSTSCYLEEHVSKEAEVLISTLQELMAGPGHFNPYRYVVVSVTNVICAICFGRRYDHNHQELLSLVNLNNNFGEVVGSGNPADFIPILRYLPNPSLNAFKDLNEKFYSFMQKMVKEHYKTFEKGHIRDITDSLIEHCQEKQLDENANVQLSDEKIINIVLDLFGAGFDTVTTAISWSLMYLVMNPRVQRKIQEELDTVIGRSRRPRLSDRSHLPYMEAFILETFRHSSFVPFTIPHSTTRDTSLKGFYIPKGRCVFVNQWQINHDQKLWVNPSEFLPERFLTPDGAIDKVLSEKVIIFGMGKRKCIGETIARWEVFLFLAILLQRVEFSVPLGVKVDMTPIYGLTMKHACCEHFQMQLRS

Homo sapiens = organism: Homo sapiens; test: Selectivity index, ratio of IC50 for human recombinant CYP1A2 to IC50 for human recombinant CYP1B1 using 7-ethoxyresorufin as substrate
CYP2C8 = biological target: T2, CYP2C8 (Homo sapiens, UniProt P10632); test: Inhibition of CYP2C8 in human liver microsome at 10 uM pre-incubated with compound for 5 mins followed NADPH addition and measured after 5 mins by LC-MS/MS analysis relative to control; assay type: ADME; details: liver microsomes, time 10 min
T2 sequence (P10632 whole entry): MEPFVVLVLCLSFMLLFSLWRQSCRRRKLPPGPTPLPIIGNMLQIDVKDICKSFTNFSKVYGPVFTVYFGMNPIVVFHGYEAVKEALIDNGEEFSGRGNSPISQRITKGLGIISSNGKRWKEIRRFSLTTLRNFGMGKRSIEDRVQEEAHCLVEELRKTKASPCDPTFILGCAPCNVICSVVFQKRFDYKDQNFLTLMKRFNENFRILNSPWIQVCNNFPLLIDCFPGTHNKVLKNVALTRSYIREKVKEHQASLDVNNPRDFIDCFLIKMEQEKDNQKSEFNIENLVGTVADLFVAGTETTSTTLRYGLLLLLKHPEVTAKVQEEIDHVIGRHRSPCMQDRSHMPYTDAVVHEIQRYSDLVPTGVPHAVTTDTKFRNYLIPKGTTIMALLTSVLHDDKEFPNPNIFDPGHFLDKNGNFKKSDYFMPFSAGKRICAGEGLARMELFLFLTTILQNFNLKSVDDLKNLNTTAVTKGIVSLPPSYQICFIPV

Cytochrome P450 2C19 = Cytochrome P450 2C19 (Homo sapiens, UniProt P33261); test: Inhibition of CYP2C19 in human liver microsome pre-incubated with compound for 5 mins followed NADPH addition and measured after 30 mins by LC-MS/MS analysis; assay type: ADME, microsomes
Cytochrome P450 2C8 = biological target: T3, Cytochrome P450 2C8 (Homo sapiens, UniProt P10632); test: Inhibition of CYP2C8 in human liver microsome pre-incubated with compound for 5 mins followed NADPH addition and measured after 5 mins by LC-MS/MS analysis; assay type: ADME, microsomes
T3 sequence (P10632 whole entry): T2 sequence (P10632 whole entry)

Cytochrome P450 2C9 = Cytochrome P450 2C9 (Homo sapiens, UniProt P11712); test: Inhibition of CYP2C9 in human liver microsome pre-incubated with compound for 5 mins followed NADPH addition and measured after 10 mins by LC-MS/MS analysis; assay type: ADME, microsomes
Cytochrome P450 2D6 = Cytochrome P450 2D6 (Homo sapiens, UniProt P10635); test: Inhibition of CYP2D6 in human liver microsome pre-incubated with compound for 5 mins followed NADPH addition and measured after 10 mins by LC-MS/MS analysis; assay type: ADME, microsomes
A549/TR [1] = test: Synergistic antiproliferative activity against human A549/Taxol cells assessed as combination index at 2.5 uM in presence of 0.025 uM paclitaxel by Chou-Talalay method; assay type: functional
A549/TR [2] = test: Synergistic antiproliferative activity against human A549/Taxol cells assessed as combination index at 5 uM in presence of 0.025 uM paclitaxel by Chou-Talalay method; assay type: functional
A549/TR [3] = test: Synergistic antiproliferative activity against human A549/Taxol cells assessed as combination index at 10 uM in presence of 0.025 uM paclitaxel by Chou-Talalay method; assay type: functional
A549/TR [4] = test: Synergistic antiproliferative activity against human A549/Taxol cells assessed as combination index at 2.5 uM in presence of 0.05 uM paclitaxel by Chou-Talalay method; assay type: functional
A549/TR [5] = test: Synergistic antiproliferative activity against human A549/Taxol cells assessed as combination index at 5 uM in presence of 0.1uM paclitaxel by Chou-Talalay method; assay type: functional
A549/TR [6] = test: Synergistic antiproliferative activity against human A549/Taxol cells assessed as combination index at 2.5 uM in presence of 0.5 uM paclitaxel by Chou-Talalay method; assay type: functional
A549/TR [7] = test: Inhibition of cell migration in human A549/Taxol cells assessed as suppression of wound closure measured after 24 hrs by scratch-wound healing assay; assay type: functional, cell-based; details: dose 2.5-5 µM
A549/TR [8] = test: Inhibition of cell migration in human A549/Taxol cells assessed as wound closure at 5 uM measured after 24 hrs by scratch-wound healing assay relative to control; assay type: functional; parameters: scale not given: the % may be the effect or the level left
[9] = Metabolic stability in liver microsomes (unknown origin) assessed as compound remaining at 0.5 mg/ml measured after 30 mins in presence of NADPH regenerating system by LC-MS/MS analysis relative to control; assay type: ADME, Microsome; details: read-out: Stability
[10] = Metabolic stability in liver microsomes (unknown origin) assessed as compound remaining at 0.5 mg/ml measured after 60 mins in presence of NADPH regenerating system by LC-MS/MS analysis relative to control; assay type: ADME, Microsome; details: read-out: Stability
[11] = Metabolic stability in liver microsome (unknown origin) assessed as intrinsic clearance at 0.5 mg/mL measured up to 60 mins by LC-MS/MS analysis; assay type: ADME; details: liver microsomes, read-out: CLH
[12] = Tmax in male Sprague-Dawley rat at 10 mg/kg, po measured up to 24 hrs by LC-MS/MS analysis; assay type: ADME, organism-based; details: in vivo
[13] = AUC (0 to infinity) in male Sprague-Dawley rat at 10 mg/kg, po measured up to 24 hrs by LC-MS/MS analysis; assay type: ADME, organism-based; details: in vivo
[14] = MRT (0 to t) in male Sprague-Dawley rat at 10 mg/kg, po measured up to 24 hrs by LC-MS/MS analysis; assay type: ADME, organism-based; details: in vivo
[15] = AUC (0 to t) in male Sprague-Dawley rat at 2 mg/kg, iv measured up to 24 hrs by LC-MS/MS analysis; assay type: ADME, organism-based; details: in vivo
[16] = AUC (0 to infinity) in male Sprague-Dawley rat at 2 mg/kg, iv measured up to 24 hrs by LC-MS/MS analysis; assay type: ADME, organism-based; details: in vivo
[17] = MRT (0 to t) in male Sprague-Dawley rat at 2 mg/kg, iv measured up to 24 hrs by LC-MS/MS analysis; assay type: ADME, organism-based; details: in vivo

Chain of Cytochrome P450 2D6 (P10635 whole entry): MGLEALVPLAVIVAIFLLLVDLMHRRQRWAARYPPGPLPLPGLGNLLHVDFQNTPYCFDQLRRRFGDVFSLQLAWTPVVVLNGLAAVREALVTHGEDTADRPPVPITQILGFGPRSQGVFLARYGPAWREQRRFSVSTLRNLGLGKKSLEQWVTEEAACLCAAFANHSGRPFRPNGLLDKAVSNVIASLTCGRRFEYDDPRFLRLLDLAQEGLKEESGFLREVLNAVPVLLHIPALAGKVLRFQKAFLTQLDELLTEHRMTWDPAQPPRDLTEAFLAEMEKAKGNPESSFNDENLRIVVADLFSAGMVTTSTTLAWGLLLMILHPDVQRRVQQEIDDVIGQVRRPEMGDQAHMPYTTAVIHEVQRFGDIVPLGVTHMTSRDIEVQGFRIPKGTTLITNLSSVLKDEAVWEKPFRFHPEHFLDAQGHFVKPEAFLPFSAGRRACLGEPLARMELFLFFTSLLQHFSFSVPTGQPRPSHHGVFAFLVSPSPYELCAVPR
Chain of Cytochrome P450 2C9 (P11712 whole entry): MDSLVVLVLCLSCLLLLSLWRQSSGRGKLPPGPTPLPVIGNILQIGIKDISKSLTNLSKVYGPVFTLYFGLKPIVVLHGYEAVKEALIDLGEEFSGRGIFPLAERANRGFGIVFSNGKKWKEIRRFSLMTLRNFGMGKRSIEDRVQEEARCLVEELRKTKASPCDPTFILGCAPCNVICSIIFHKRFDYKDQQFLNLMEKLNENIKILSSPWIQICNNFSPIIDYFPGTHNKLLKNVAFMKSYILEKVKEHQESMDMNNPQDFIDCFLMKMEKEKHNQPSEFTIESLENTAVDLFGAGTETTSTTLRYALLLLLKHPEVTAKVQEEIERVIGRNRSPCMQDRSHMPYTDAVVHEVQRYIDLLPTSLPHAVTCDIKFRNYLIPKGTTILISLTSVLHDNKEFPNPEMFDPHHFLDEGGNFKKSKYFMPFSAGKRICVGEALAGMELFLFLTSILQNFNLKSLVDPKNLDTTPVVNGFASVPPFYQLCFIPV
Chain of Cytochrome P450 2C19 (P33261 whole entry): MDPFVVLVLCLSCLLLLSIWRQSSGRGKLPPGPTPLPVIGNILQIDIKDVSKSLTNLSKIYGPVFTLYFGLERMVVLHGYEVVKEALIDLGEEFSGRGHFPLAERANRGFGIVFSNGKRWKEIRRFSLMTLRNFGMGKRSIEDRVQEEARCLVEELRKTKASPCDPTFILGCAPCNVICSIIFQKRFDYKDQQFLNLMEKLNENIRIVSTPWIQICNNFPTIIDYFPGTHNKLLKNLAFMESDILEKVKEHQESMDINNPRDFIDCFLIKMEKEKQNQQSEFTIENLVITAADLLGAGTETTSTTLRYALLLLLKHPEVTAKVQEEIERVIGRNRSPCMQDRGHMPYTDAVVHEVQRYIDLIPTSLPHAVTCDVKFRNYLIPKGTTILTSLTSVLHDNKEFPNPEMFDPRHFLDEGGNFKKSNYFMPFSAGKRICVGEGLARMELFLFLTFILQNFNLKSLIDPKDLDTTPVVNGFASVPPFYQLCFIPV

| IC50 (Cytochrome P450 1A1) [µM] | Ratio IC50 (Homo sapiens) | inhibition at 5 min, 10 µM (CYP2C8) [%] | IC50 (Cytochrome P450 2C19) [µM] | IC50 (Cytochrome P450 2C8) [µM] | IC50 (Cytochrome P450 2C9) [µM] | IC50 (Cytochrome P450 2D6) [µM] | remaining at 0.5 h [9] [%] | remaining at 1 h [10] [%] | CLint scaled [11] [mL/min/kg] | Compound | other results |
| --- | --- | --- | --- | --- | --- | --- | --- | --- | --- | --- | --- |
| > 100 | > 54000 | 15.7 | > 10 | > 10 | > 10 | > 10 | 98.2 | 96.6 | 1.1 | O=C(Nc1cc(Cl)cc(Cl)c1)c1nc(-c2cccc(Cl)c2)cs1 | CI (A549/TR [1]): 0.75; CI (A549/TR [2]): 0.71; CI (A549/TR [3]): 0.86; CI (A549/TR [4]): 0.08; CI (A549/TR [5]): 0.15; CI (A549/TR [6]): 0.24; inhibition (A549/TR [7]): Dose-dependent-effect; Activity (A549/TR [8]): 3%; Tmax [12]: 1 h; AUC(0-inf) [13]: 239 ng·h/mL; MRT last at 24 h [14]: 2.32 h; AUC(0-t) at 24 h [15]: 2290 ng·h/mL; AUC(0-inf) [16]: 2300 ng·h/mL; MRT last at 24 h [17]: 0.64 h |
| 0.0773 | > 200000 | 33.6 | 6.45 | > 10 | > 10 | > 10 | 72.5 | 54.3 | 17.8 | N#Cc1ccc(-c2csc(C(=O)Nc3ccc(C(F)(F)F)cc3)n2)cc1 | – |
| > 100 | > 56400 | 0 | – | – | – | – | 102 | 97.1 | – | N#Cc1ccc(-c2csc(C(=O)Nc3cc(Cl)cc(Cl)c3)n2)cc1 | – |
